In US6242482A, “Prostaglandin compounds and derivatives thereof, compositions containing the same and method of using the same for the treatment of congestive heart failure” (priority 2000, dated 2001):
Where “and” joins values, the source holds several entries; their conditions need not be identical. Equal entries are not always repeated. Entries after “also recorded” stand apart in the source; their conditions may differ. Where two headings read alike, the source gives them in different places.

Key:
[1] = tested on: Human Platelet Aggregation (collagen-induced); assay: Anti-aggregatory response, 1 min incubation with PRP, collagen-induced (Example 4); type: cell-based; settings: 1 min with PRP; for Platelet Aggregation (mean): collagen 1 μg/ml
Experimental: (§1) Blood from healthy human volunteers who had not taken any medicine for at least 14 days was collected by venopuncture into 3.15% (w/v) tri-sodium citrate (9:1 v/v). The blood was centrifuged at 800 g for 15 minutes to produce PRP. The PRP was further centrifuged at 12,000 g for 1 minute to produce PPP.
(§2) Platelet aggregation was measured using a dual channel Payton aggregometer calibrated with PRP (0%) and PPP (100%) with respect to the degree of light transmission. Aliquots of PRP (500 μl) were added to siliconized cuvettes, stirred (1000 revs/min) and warmed to 37° C. The platelets were incubated for 1 minute to establish a stable baseline prior to testing. A submaximal concentration of the aggregating agent collagen (1 μg/ml) was added to the PRP and the platelet aggregation was monitored as the increase in light transmission observed over a 4 minute period.
The percent inhibition of the platelet aggregation was calculated using the peak increase in light transmission observed over the 4 minute period following the addition of collagen, as compared to that of the control. This experiment was repeated using PRP from at least three human volunteers.

[2] = tested on: Human Platelet Aggregation (collagen-induced); assay: Anti-aggregatory response after incubation with aqueous vehicle (acetate buffer) (Example 4); type: cell-based
Experimental: as §1, §2
(§3) After the incubation period, a 50 μl aliquot of the aqueous vehicle with the corresponding sample compound was added to fresh PRP (450 μl) for determination of anti-aggregatory activity following challenge with collagen. This experiment was repeated using PPP from at least three human volunteers. […] The data in both Tables 2 and 3 are shown as the mean and the standard error of n number of donors.

[3] = tested on: Human Platelet Aggregation (collagen-induced); assay: Anti-aggregatory response after incubation with human PPP (Example 4); type: cell-based
Experimental: as §1, §2, §3

[4] = tested on: Human Platelet Aggregation (collagen-induced); assay: Anti-aggregatory activity, 1 min incubation with PRP, collagen-induced (Example 8); type: cell-based; settings: 1 minute with PRP
Experimental: (§4) Blood from healthy human volunteers who had not taken any medicine for at least 14 days was collected by venopuncture into 3.15% (w/v) tri-sodium citrate (9:1 v/v). The blood was centrifuged at 800 g for 15 minutes to produce PRP. The PRP was further centrifuged at 12,000 g for 1 minute to produce PPP. A total of 12 volunteers donated blood for the study.
(§5) Platelet aggregation was studied using a dual channel Payton aggregometer calibrated with PRP (0%) and PPP (100%) with respect to the degree of light transmission. Aliquots of PRP (500 μl) were added to siliconized cuvettes, stirred (1000 revs/min) and warmed to 37° C. The platelets were incubated for 1 minute to establish a stable baseline prior to investigation. A submaximal concentration of the aggregating agent collagen (1 μg/ml) was added to the PRP and the platelet aggregation was monitored as the increase in light transmission observed over a 4 minute period.
The percentage inhibition of the platelet aggregation was calculated using the peak increase in light transmission observed over the 4 minute period following addition of collagen, as compared to that of control. This experiment was repeated using PRP from at least three human volunteers for each compound under study.

[5] = tested on: Human Platelet Aggregation (collagen-induced); assay: Anti-aggregatory response after incubation with PPP (Example 8); type: cell-based; settings: up to 4 hours at 37° C
Experimental: as §4, §5
(§6) After the incubation period, an aliquot of the PPP or aqueous vehicle (50 μl) was added to fresh PRP (450 μl) for determination of anti-platelet activity. This experiment was repeated using PPP from at least three human volunteers for each compound.

[6] = tested on: Human Platelet Aggregation (collagen-induced); assay: Anti-aggregatory response after incubation with aqueous vehicle (Example 8); type: cell-based; settings: up to 4 hours at 37° C
Experimental: as §4, §5, §6

[7] = tested on: mean arterial pressure and heart rate of anesthetized rats; assay: Systemic hemodynamic effects, intravenous, anesthetized rats (Example 5); type: in vivo, rat (male Wistar)
Experimental: The time for onset and maximal response were evaluated, as well as the time taken for the response to return to 50% of the baseline value for comparing effective lives. Among other effects, lowering of the blood pressure inside the blood vessels is beneficial for the treatment of congestive heart failure by reducing the vascular resistance blood flow, and thus the work load imposed on the heart.
Male Wistar rats were anesthetized with thiopentone sodium (INTRAVAL®, 120 mg kg^-1 i.p.). The trachea was cannulated to facilitate breathing. The right carotid artery was cannulated and connected to a pressure transducer (Spectramed P23XL), for the measurement of mean arterial pressure (MAP) and heart rate (HR) which were continuously recorded on a 4-channel Grass 7D polygraph recorder (Grass, Mass., USA). The left femoral vein or the right jugular vein was cannulated for the administration of drugs. The body temperature of the test animal was maintained at 37±1° C. by means of a rectal probe thermometer attached to a homeothermic blanket control unit (Harvard Apparatus Ltd).
After a 15 minute stabilization period, the animals were injected once intravenously with selected doses of each compound, and hemodynamic parameters were continuously monitored for three hours in order to ascertain the duration of action of the compounds under study.

[8] = tested on: mean arterial pressure and heart rate of anesthetized rats; settings: for Time of Δmax (superscript) / t1/2 / Δmax (Mean Arterial Pressure): Table 4; for Mean Arterial Pressure: 0,1,5,10,15,30,60,120,180,240,360 min
Experimental: Male Wistar rats (250-330 g) were anesthetized with thiopentone sodium (INTRAVAL®, 120 mg/kg i.p.). The trachea was cannulated to facilitate respiration. The right carotid artery was cannulated and connected to a pressure transducer (Spectramed P23XL), for the measurement of mean arterial pressure (MAP) and heart rate (HR) which were continuously recorded on a 4-channel Grass 7D polygraph recorder (Grass, Mass., U.S.A.). Body temperature was maintained at 37±1°C. by means of a rectal probe thermometer attached to a homeothermic blanket control unit (Harvard Apparatus Ltd.).

[9] = i.v., Compound X 0.1 and 1 mg/kg, Compound 1 doses of b230

CCCCC[C@H](O)CC[C@@H]1[C@H]2Cc3cccc(OCC(=O)O)c3C[C@H]2C[C@H]1O [Compound X]
Platelet Aggregation (mean) ([1]; 1 ng/ml final): 101 % of Control
Platelet Aggregation (mean) ([1]; 3 ng/ml final): 98 % of Control
Platelet Aggregation (mean) ([1]; 10 ng/ml final): 60 % of Control
Platelet Aggregation (mean) ([1]; 30 ng/ml final): 1 % of Control
Platelet Aggregation (mean) ([1]; 100 ng/ml final): 1 % of Control
inhibition of aggregation response at highest concentrations ([1]; Compound X 30 and 100 ng/ml, Compound 1 3 mg/ml, Compound 3 10 mg/ml): completely inhibited the aggregation response
concentration inhibiting aggregation by 50% (ID50) ([1]; collagen): 20 ng/mL
inhibition of platelet aggregation, concentration dependence ([1]; collagen): concentration-dependentinhibition of collagen-induced platelet aggregation
Platelet Aggregation (mean) ([2]; 3 ng/ml final, 1 Hour in acetate buffer): 107 % of Control
Platelet Aggregation (mean) ([2]; 3 ng/ml final, 4 Hours in acetate buffer): 94 % of Control
Platelet Aggregation (mean) ([2]; 3 ng/ml final, 15 Minutes in acetate buffer): 98 % of Control
Platelet Aggregation (mean) ([2]; 30 ng/ml final, 1 Hour in acetate buffer): 8 % of Control
Platelet Aggregation (mean) ([2]; 30 ng/ml final, 4 Hours in acetate buffer): 8 % of Control
Platelet Aggregation (mean) ([2]; 30 ng/ml final, 15 Minutes in acetate buffer): 3 % of Control
effect of incubation with aqueous vehicle on anti-platelet activity ([2]; 15 minutes, 1 hour and 4 hours): no significant effect on the degree of anti-platelet activity
Platelet Aggregation (mean) ([3]; 3 ng/ml final, 1 Hour in human PPP): 100 % of Control
Platelet Aggregation (mean) ([3]; 3 ng/ml final, 4 Hours in human PPP): 91 % of Control
Platelet Aggregation (mean) ([3]; 3 ng/ml final, 15 Minutes in human PPP): 101 % of Control
Platelet Aggregation (mean) ([3]; 30 ng/ml final, 1 Hour in human PPP): 1 % of Control
Platelet Aggregation (mean) ([3]; 30 ng/ml final, 4 Hours in human PPP): 1 % of Control
Platelet Aggregation (mean) ([3]; 30 ng/ml final, 15 Minutes in human PPP): 1 % of Control
effect of incubation with PPP on anti-platelet activity ([3]; 15 minutes, 1 hour and 4 hours): no significant effect on the anti-platelet activity
concentration inhibiting aggregation by 50% (IC50) [4]: 19 ± 1 ng/mL
inhibition of platelet aggregation, concentration dependence [4]: concentration dependent inhibition of collagen-induced platelet aggregation
inhibition of aggregation response at highest concentrations ([4]; X 30 and 100 ng/ml, 4 300 μg/ml, 6 3 mg/ml, 7 10 mg/ml): completely inhibited the aggregation response
effect of incubation with PPP on anti-platelet activity [5]: not affected by incubation
effect of incubation with aqueous vehicle/saline/buffer on anti-platelet activity [6]: not affected by incubation
effective life (MAP returning to 50% of baseline value) ([7]; 0.1 mg/kg i.v.): about fifteen
effective life (MAP returning to 50% of baseline value) ([7]; 1.0 mg/kg i.v.): about thirty
decline in MAP ([7]; i.v.): immediate, dose related decline in the MAP; also recorded: substantial dose-related fall in MAP
maximum decline in MAP [7, 9]: about 70 mm Hg
time of maximum decline in MAP [7, 9]: within the first minute
Time of Δmax (superscript) ([8]; 0.1 mg/kg s.c.): 15 min
t1/2 ([8]; 0.1 mg/kg s.c.): 165 min
Δmax (Mean Arterial Pressure) ([8]; 0.1 mg/kg s.c.): 46 ± 5 mm Hg
Mean Arterial Pressure ([8]; 0.3 mg/kg s.c.): 101 ± 12 mm Hg
Time of Δmax (superscript) ([8]; 0.3 mg/kg s.c.): 10 min
t1/2 ([8]; 0.3 mg/kg s.c.): 80 to 110 min
Δmax (Mean Arterial Pressure) ([8]; 0.3 mg/kg s.c.): 52 mm Hg
maximum fall in MAP ([8]; 1 mg/kg s.c.): about 70 mm Hg
time of maximum fall in MAP ([8]; 1 mg/kg s.c.): 15 min
Mean Arterial Pressure ([8]; 1 mg/kg s.c.): 88 ± 5 mm Hg and 98 ± 6 mm Hg
Time of Δmax (superscript) ([8]; 1 mg/kg s.c.): 15 min
t1/2 ([8]; 1 mg/kg s.c.): 135 to 290 min
Δmax (Mean Arterial Pressure) ([8]; 1 mg/kg s.c.): 71 ± 8 mm Hg
heart rate / tachycardia ([8]; rat, in vivo, sc): dose-dependent increase in heart rate
fall in MAP ([8]; s.c., Compound 4 1-10 mg/kg, Compound X 0.1-1 mg/kg, Compounds 7 and 8 3-30 mg/kg): rapid dose-related fall in MAP
